Here are results for two molecules from US9643994B2, “Crystalline polymorphic form of ulipristal acetate” (ASKA PHARMACEUTICAL CO., LTD., priority 2012, dated 2017).

≈ marks a conversion by molar mass, not a printed value. Where two headings read alike, the source gives them in different places.

The data set is described as follows: Solubility in ethanol/water (10/90) mixed solvent at 37° C., HPLC quantitation. The class given is physicochemical. From the text: [Solubility] […] Then a portion of the suspension was separated.

As for `CC(=O)O[C@]1(C(C)=O)CCC2C3CCC4=CC(=O)CCC4=C3[C@@H](c3ccc(N(C)C)cc3)C[C@@]21C` (stereo partly drawn) [Comparative Example, 17alpha-acetoxy-11beta-(4-N,N-dimethylaminophenyl)-19-norpregna-4,9-diene-3,20-dione], the Solubility (commonly the dissolved amount per volume that the medium holds) worked out at 6.4 µg/mL (≈ 13.5 µM). As to `CC(=O)O[C@]1(C(C)=O)CCC2C3CCC4=CC(=O)CCC4=C3[C@@H](c3ccc(N(C)C)cc3)C[C@@]21C` (stereo partly drawn) [Example 1, 17alpha-acetoxy-11beta-(4-N,N-dimethylaminophenyl)-19-norpregna-4,9-diene-3,20-dione], the Solubility (40 mg in 40 mL ethanol/water (volume ratio)=10/90, 37° C., stirred 5 minutes, filtered, HPLC UV 302 nm) amounted to 9.2 µg/mL.
